Test results: ChEMBL document CHEMBL1144151, “Two novel anti-emetic principles of Alpinia katsumadai” (1999)

Tests used:
Format in all cases: functional
Conditions in all cases: route intraperitoneal
Gallus gallus [1] = assay: Anti-emetic activity against copper sulfate-induced emesis in 4 days old chicks assessed as inhibition of number of retching reflexes at 10 mg/kg, ip measured 10 mins after copper sulfate challenge
Gallus gallus [2] = assay: Anti-emetic activity against copper sulfate-induced emesis in 4 days old chicks assessed as inhibition of number of retching reflexes at 50 mg/kg, ip measured 10 mins after copper sulfate challenge
Gallus gallus [3] = assay: Anti-emetic activity against copper sulfate-induced emesis in 4 days old chicks assessed as inhibition of number of retching reflexes at 20 mg/kg, ip measured 10 mins after copper sulfate challenge

| SMILES | inhibition in vivo at 10 mg/kg (Gallus gallus [1]) | inhibition in vivo at 50 mg/kg (Gallus gallus [2]) | inhibition in vivo at 20 mg/kg (Gallus gallus [3]) |
| --- | --- | --- | --- |
| O=C(CCc1ccccc1)C[C@@H]1C[C@@H](c2ccccc2)c2c(cc(/C=C/c3ccccc3)oc2=O)O1 [KATSUMADAIN A] | 8.8% | 50.2% | 14.5% |
| O=C(CCc1ccccc1)CC(/C=C/c1ccccc1)c1c(O)cc(/C=C/c2ccccc2)oc1=O (centres undefined) [KATSUMADAIN B] |  | 41.4% |  |
